Reference: patent US20080125451A1, “VINORELBINE DERIVATIVES” (AMR TECHNOLOGY, INC., priority 2006, published 2008)

Tested on: HeLa Cells
Test: HeLa GI50 determination (SRB growth inhibition)
Format: cell-based
Settings: 48 h; human cervical carcinoma cell line HeLa S-3; 2 days of treatment; sulforhodamine B staining
Method: A. HeLa GI50 Determinations
Growth inhibition (GI50) values were measured on the human cervical carcinoma cell line, HeLa S-3, which were selected for growth on plastic. The HeLa cell assay was based on the description of Skehan et al., J. Natl. Cancer Inst., 82:1107-12 (1990), which is hereby incorporated by reference in its entirety. HeLa cells were plated at 2×10^4 cells/well in 96 well plates. One day later, a control plate was fixed by the addition of TCA to 5%. After five rinses with tap water, the plate was air-dried and stored at 4° C. Test compounds were added to the remaining plates at 10-fold dilutions. Two days later, all plates were fixed as described above. Cells were then stained by the addition of 100 μL per well of 0.4% sulforhodamine B (SRB) in 1% acetic acid for 30 min at 4° C. Wells were then quickly rinsed 5× with 1% acetic acid and allowed to air dry. The SRB was then solubilized by the addition of 100 μL per well of unbuffered 10 mM Tris base. Dye was quantified by measuring absorbance at 490 nm on a Molecular Devices microplate reader. Growth inhibition was calculated according to the following equation: GI=100×(T−T0)/(C−T0), where the optical density (OD) of the test well after 2 days of treatment was T, the OD of the wells in the control plate on day 0 was T0 and C was the OD of untreated wells. […]

Structure (SMILES) | GI50
CCc1ccc2[nH]c3c(c2c1)CN1CC(C(C)(F)F)C[C@@H](C1)C[C@]3(C(=O)OC)c1cc2c(cc1OC)N(C)[C@H]1[C@@](O)(C(=O)OC)[C@H](OC(C)=O)[C@]3(CC)C=CCN4CC[C@]21[C@@H]43 (some centres unmarked) [Example 3, 11′-Ethylvinflunine] | 170 nM
CC[C@]12C=CCN3CC[C@@]4(c5cc([C@@]6(C(=O)OC)C[C@H]7CC(C(C)(F)F)CN(Cc8c6[nH]c6ccc(SC)cc86)C7)c(OC)cc5N(C)[C@H]4[C@@](O)(C(=O)OC)[C@@H]1OC(C)=O)[C@@H]32 (some centres unmarked) [Example 12, 11′-(Methylsulfanyl)vinflunine] | 6.93 nM
